In one assay the target is T1, BRAF (V600E) kinase (Homo sapiens, UniProt P15056, V600E).
T1 construct: area encoding the BRAF kinase domain region, so that the protein contains an N-terminal Flag; made in house; host or cells: SF-21 insect cells infected with recombinant baculovirus BAC-V600E
As to the kind of experiment: Determination of BRAF (V600E) kinase inhibitory activity. In kind it is biochemical. The conditions noted are these: compound 1.0 μm; substrate GSTP1-MEK1 (K96R), [γ-32P]ATP. The protocol:
Determination of BRAF (V600E) Kinase Inhibitory Activity
A test compound (2.5 μL) dissolved in dimethyl sulfoxide (DMSO) was added to 37.5 μL of a reaction solution (25 mM HEPES (pH 7.5), 10 mM magnesium acetate, 1 mM dithiothreitol) containing 30 ng of BRAF (V600E) enzyme and 250 ng of recombinant protein GSTP1-MEK1 (K96R) prepared using FreeStyle 293 expression system (Invitrogen), and the mixture was incubated at room temperature for 10 min. 10 μL of ATP solution (2.5 μM ATP, 0.1 μCi [γ-^32P]ATP) was added to the obtained mixture, and the mixture was reacted at room temperature for 20 min. The reaction was quenched by adding 50 μL of ice-cooled 20% trichloroacetic acid (Wako Pure Chemical Industries, Ltd.) to the reaction solution. The reaction solution was allowed to stand at 4° C. for 30 min., and the acid-precipitable fraction was transferred to GF/C filter plate (Millipore Corporation) using cell harvester (PerkinElmer). The plate was dried at 45° C. for 60 min., and 40 μL of MicroScinti 0 (PerkinElmer) was added thereto. The radioactivity was measured using TopCount (PerkinElmer). The kinase inhibitory rate (%) of the test compound was calculated by the following formula: Inhibitory rate (%)=(1−(count of test compound−blank)÷(control−blank))×100
The count of the solution reacted without addition of the compound was used as a “control”, and the count of the solution without the compound and enzyme was used as a “blank”.

For assay [1], the system named is MEK1/2 phosphorylation in human colorectal cancer cell HT-29. The assay is described as follows: Colorectal cancer cell HT-29 intracellular MEK phosphorylation inhibitory activity in vitro. In kind it is cell-based. The conditions noted are these: HT-29 cells; for IC50: 2 hrs treatment, phosphorylated MEK1/2 by Western blot; for inhibition at 0.5 µM: MEK1/2 protein phosphorylation, compound 0.5 μM, 2 hrs, read-out: inhibitory rate (%) at 0.5 μM. On the procedure: Colorectal Cancer Cell HT-29 Intracellular MEK Phosphorylation Inhibitory Activity In Vitro
500 μL of a cell suspension of human colorectal cancer cell HT-29 (purchased from American Type Culture Collection (ATCC)) was plated in a 48-well plate (100,000 cells/well), and the cells were cultured overnight at 37° C. in the presence of 5% CO2, treated with a test compound (250 μL/well) diluted in 3-fold dilution series and cultured for 2 hrs. After 2 hrs, the culture medium containing the test compound was removed, and the cells were lysed with SDS sample buffer (100 μL/well) and heated at 95° C. for 5 min. Thereafter, the cells lysed with SDS sample buffer were applied to SDS-PAGE, and the protein was transferred onto Sequi-Blot™ PVDF Membrane (Bio-Rad) by the Western blot method. The PDVF membrane was blocked with a Block-Ace solution (Snow Brand Milk Products Co., Ltd) dissolved in phosphate buffered saline (MP Biochemicals) to 5% W/V, and reacted overnight with anti-phosphorylated MEK1/2 (Ser217/221) (Cell signaling) diluted 1000-fold with phosphate buffered saline containing 0.4% Block-Ace. The membrane was washed with phosphate buffered saline containing 0.1% Tween 20 (Wako Pure Chemical Industries, Ltd.), and reacted at room temperature for 1 hr with HRP labeled rabbit IgG polyclonal antibody (Cell signaling) diluted 1000-fold with phosphate buffered saline containing 0.4% Block-Ace. The membrane was washed in the same manner as above, chemical luminescence of a phosphorylated MEK1/2 protein labeled with the antibody, which was caused by ECL-plus Detection Reagent (Amersham bioscience), was detected by Luminescent Image Analyzer LAS-1000 (FUJIFILM Corporation). Taking the luminescence of the control group free of the test compound as 100%, the concentration (IC50 value) of the compound necessary for inhibiting the residual luminescence to 50% of the control group was calculated. The results are shown in Table 3-A. In addition, MEK1/2 protein phosphorylation inhibitory rate (%) of the test compound at compound concentration 0.5 μM was calculated by the following formula. The results are shown in Table 3-B. Inhibitory rate (%)=(1−(luminescence of test compound−blank)÷(luminescence of control group−blank))×100
A general note: Immunoblotting shows a protein as a band on a membrane.

Assay [2] relates to human colorectal cancer cell HT-29. The assay is described as follows: Colorectal cancer cell HT-29 growth suppressive activity in vitro. It counts as cell-based. The note with it: 72 h, HT-29 cells, SRB staining; for IC50: 3 days culture; for inhibition at 5 µM: cell proliferation, compound 5.0 μM, 3 days, read-out: inhibitory rate (%) at 5.0 μM. On the procedure:
Colorectal Cancer Cell HT-29 Growth Suppressive Activity in Vitro
100 μL of a cell suspension (3,000 cells/well) of human colorectal cancer cell HT-29 (purchased from ATCC) was plated in a 96-well plate, and the cells were cultured at 37° C. in a 5% CO2 gas incubator. The next day, 100 μL of each test compound solution diluted in 2-fold serial dilution, diluted from maximum concentration 20 μM, was added, and the cells were cultured for 3 days. As for Example 44, 100 μl of each test compound solution (4-fold serially diluted, diluted from maximum concentration 20 μM) was added, and the cells were cultured for 3 days. The culture medium containing the test compound was removed, and the cells were washed with phosphate buffered saline (PBS). A 50% trichloroacetic acid solution was added to the final concentration of 10% (v/v), and the mixture was stood overnight at 4° C., whereby the cells were fixed to the plate. Then, a dye SRB 0.4% (w/v) solution (dissolved in 1% acetic acid) was added at 50 μl/well, whereby the cell protein was fixed and stained (Skehan et al., Journal Of National Cancer Institute, vol. 82, pp. 1107-1112, 1990). The cells were washed 3 times with 1% acetic acid solution (200 μL/well), and 100 μL of an extract (10 mM Tris buffer) was added to extract the dye. The absorbance at an absorption wavelength 550 nm was measured, and cell amount was measured as a protein amount. Taking the protein amount of the control group free of the test compound solution as 100%, the proportion of the residual protein amount of each treatment group was determined and the concentration of the compound necessary for suppressing the residual cell amount to 50% of the control (IC50 value) was calculated. The results are shown in Table 4-A. In addition, cell proliferation inhibitory rate (%) of the test compound at compound concentration 5.0 μM was calculated by the following formula. The results are shown in Table 4-B. Inhibitory rate (%)=(1−(absorbance of test compound−blank)÷(absorbance of control group−blank))×100

The source of these data is patent US8697874B2, “Heterocyclic compound and use thereof” (Takeda Pharmaceutical Company Limited, priority 2008, dated 2014).

T1 sequence (P15056 457-717 V600E limits assumed): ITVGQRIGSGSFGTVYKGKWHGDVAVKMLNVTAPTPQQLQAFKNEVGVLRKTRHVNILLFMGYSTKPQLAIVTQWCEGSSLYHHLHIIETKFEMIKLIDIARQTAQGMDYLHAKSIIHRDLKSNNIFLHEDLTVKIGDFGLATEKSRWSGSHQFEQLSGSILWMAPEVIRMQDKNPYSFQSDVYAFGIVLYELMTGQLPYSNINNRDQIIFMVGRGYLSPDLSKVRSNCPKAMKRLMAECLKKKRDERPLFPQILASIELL

As to `CN(c1ccc(F)c(NC(=O)Nc2ccc(C(F)(F)F)cc2)c1)c1ccc2nc(NC(=O)C3CC3)sc2n1` [Example 1, N-(5-{[4-fluoro-3-({[4-(trifluoromethyl)phenyl]carbamoyl}amino)phenyl](methyl)amino}[1,3]thiazolo[5,4-b]pyridin-2-yl)cyclopropanecarboxamide], the “inhibitory rate (%) at 1.0 μm” value against BRAF (V600E) kinase is reported as 98%.
Consider `CN(c1ccc(F)c(NC(=O)Nc2ccc(C(C)(C)C)cc2)c1)c1ccc2nc(NC(=O)C3CC3)sc2n1` [Example 3, N-{5-[(3-{[(4-tert-butylphenyl)carbamoyl]amino-}-4-fluorophenyl)(methyl)amino][1,3]thiazolo[5,4-b]pyridin-2-yl}cyclopropanecarboxamide], for which, in assay [1], the 50% inhibitory concentration (IC50) – broadly, the concentration needed to halve the response being measured – is below 300 nM and the inhibition at 0.5 µM was found to be 94%.
With `CN(c1cccc(NC(=O)Nc2ccc(OC(F)(F)F)cc2)c1)c1ccc2nc(NC(=O)C3CC3)sc2n1` [Example 9, N-(5-{methyl[3-({[4-(trifluoromethoxy)phenyl]carbamoyl}amino)phenyl]amino}[1,3]thiazolo[5,4-b]pyridin-2-yl)cyclopropanecarboxamide], in assay [2], the IC50 is below 500 nM and the inhibition at 5 µM stood at 100%.
With `CN(c1cccc(NC(=O)Nc2ccc(Cl)c(C(F)(F)F)c2)c1)c1ccc2nc(NC(=O)C3CC3)sc2n1` [Example 11, N-(5-{[3-({[4-chloro-3-(trifluoromethyl)phenyl]carbamoyl}amino)phenyl](methyl)amino}[1,3]thiazolo[5,4-b]pyridin-2-yl)cyclopropanecarboxamide], the “inhibitory rate (%) at 1.0 μm” value against BRAF (V600E) kinase came to 99%.
As for `O=C(Nc1ccc(Cl)c(C(F)(F)F)c1)Nc1cc(Nc2ccc3nc(NC(=O)C4CC4)sc3n2)ccc1F` [Example 13, N-(5-{[3-({[4-chloro-3-(trifluoromethyl)phenyl]carbamoyl}amino)-4-fluorophenyl]amino}[1,3]thiazolo[5,4-b]pyridin-2-yl)cyclopropanecarboxamide], in assay [1], the IC50 is below 300 nM and the inhibition at 0.5 µM is 98%.
Turning to `O=C(Cc1ccccc1C(F)(F)F)Nc1cc(Oc2ccc3nc(NC(=O)C4CC4)sc3n2)ccc1F` [Example 19, N-{5-[4-fluoro-3-({[2-(trifluoromethyl)phenyl]acetyl}amino)phenoxy][1,3]thiazolo[5,4-b]pyridin-2-yl}cyclopropanecarboxamide], the “inhibitory rate (%) at 1.0 μm” value against BRAF (V600E) kinase was found to be 100%.
As for `O=C(Cc1ccc(C(F)(F)F)cc1)Nc1cc(Oc2ccc3nc(NC(=O)C4CC4)sc3n2)ccc1F` [Example 21, N-{5-[4-fluoro-3-[{(4-(trifluoromethyl)phenyl]acetyl}amino)phenoxy][1,3]thiazolo[5,4-b]pyridin-2-yl}cyclopropanecarboxamide], the “inhibitory rate (%) at 1.0 μm” value against BRAF (V600E) kinase is listed as 98%.
Consider `O=C(Cc1cccc(C(F)(F)F)c1)Nc1cc(Oc2ccc3nc(NC(=O)C4CC4)sc3n2)ccc1F` [Example 22, N-{5-[4-fluoro-3-({[3-(trifluoromethyl)phenyl]acetyl}amino)phenoxy][1,3]thiazolo[5,4-b]pyridin-2-yl}cyclopropanecarboxamide], for which the inhibition at 0.5 µM in assay [1] was 88%.
For `O=C(Nc1cccc(C(F)(F)F)c1)Nc1cc(Oc2ccc3nc(NC(=O)C4CC4)sc3n2)ccc1F` [Example 23, N-{5-[4-fluoro-3-({[3-(trifluoromethyl)phenyl]carbamoyl}amino)phenoxy][1,3]thiazolo[5,4-b]pyridin-2-yl}cyclopropanecarboxamide], in assay [1], the half-inhibitory concentration (IC50) is below 300 nM and the inhibition at 0.5 µM is 88%.
For `O=C(Nc1ccc(C(F)(F)F)nc1)Nc1cc(Oc2ccc3nc(NC(=O)C4CC4)sc3n2)ccc1F` [Example 29, N-{5-[4-fluoro-3-({[6-(trifluoromethyl)pyridin-3-yl]carbamoyl}amino)phenoxy][1,3]thiazolo[5,4-b]pyridin-2-yl}cyclopropanecarboxamide], in assay [2], the IC50 was below 500 nM and the inhibition at 5 µM was determined as 74%.
Turning to `Cc1ccc(NC(=O)Cc2ccsc2)cc1Oc1ccc2nc(NC(=O)C3CC3)sc2n1` [Example 44, N-(5-{2-methyl-5-[(thiophen-3-ylacetyl)amino]-phenoxy} [1,3]thia-zolo[5,4-b]pyridin-2-yl)cyclo-propanecarboxamide], in assay [2], the half-inhibitory concentration (IC50) is below 500 nM and the inhibition at 5 µM stood at 98%.
